Experimental data: patent US11655252B2, “Aminopyrimidinyl derivatives” (Pfizer Inc., priority 2020, dated 2023)

Key:
JAK1 = JAK1 (Homo sapiens (Human), UniProt P23458); test: JAK Family Caliper Enzyme Assay (JAK1); format: biochemical; conditions: recombinant human kinase domain, 1 mM ATP
Protocol: (§1) JAK Family Caliper Enzyme Assay
(§2) Compounds of the invention were evaluated by in vitro methods to determine their respective ability to inhibit the JAK kinases (TYK2, JAK1, JAK2, JAK3). Inhibitory activity was determined by using a microfluidic assay (LabChip 3000™ mobility shift technology, Caliper Life Science) to monitor phosphorylation of a synthetic peptide by the recombinant human kinase domain of each of the four members of the JAK family, JAK1, JAK2, JAK3 and TYK2. Reaction mixtures contained 1 μM of a fluorescently labeled synthetic peptide, a concentration less than the apparent Km, and 1 mM ATP.
(§3) Compounds in DMSO solution were added to a 384-well plate. Reaction mixtures contained 10 mM HEPES, pH 7.4, 10 mM MgCl2, 0.01% BSA, 0.0005% Tween 20™, 1 mM ATP and 1 μM peptide substrate. The JAK1 and TYK2 assays contained 1 μM of the IRStide peptide (5FAM-KKSRGDYMTMQID) and the JAK2 and JAK3 assays contained 1 μM of the JAKtide peptide (FITC-KGGEEEEYFELVKK). The assays were initiated by the addition of 20 nM JAK1, 1 nM JAK2, 1 nM JAK or 1 nM TYK2 enzyme and were incubated at room temperature for three hours for JAK1, 60 minutes for JAK2, 75 minutes for JAK3 or 135 minutes for TYK2. Enzyme concentrations and incubation times were optimized for each new enzyme preps and were modified slightly over time to ensure 20% to 30% phosphorylation. The assays were stopped with 15 μL of 180 mM HEPES, pH 7.4, 20 mM EDTA, and 0.2% Coating Reagent 3. The assay plates were placed on a Caliper Life Science LC3000 instrument, and each well was sampled using appropriate separation conditions to measure the unphosphorylated and phosphorylated peptide.
(§4) The data was collected using the HTS Well Analyzer software from Caliper Life Sciences. The data output for data analysis is the percent product converted calculated on peak height (Equation 1). % product converted=100*((product)/(product+substrate)) Equation 1: […]
(§5) The percent effect at each compound concentration was calculated based on the positive and negative control well contained within each assay plate (Equation 2). […] The negative control wells contained DMSO alone (at the same concentration as the compound wells) that was used to set the baseline activity in the assay (i.e., uninhibited JAK1, JAK2, JAK3 or TYK2). % effect=100*((sample well−negative control)/(positive control−negative control)) Equation 2: […]
(§6) The percent effect was plotted against the compound concentration compound. An unconstrained sigmoid curve was fitted using a 4 parameter logistic model and the compound concentration required for 50% inhibition (IC50) was determined (Equation 3). y=((max−min)/(1+((x/IC50)^s)))+min Equation 3: […]

JAK2 = JAK2 (Homo sapiens (Human), UniProt O60674); test: JAK Family Caliper Enzyme Assay (JAK2); format: biochemical; conditions: recombinant human kinase domain, 1 mM ATP
JAK2, sequence (O60674 849-1124): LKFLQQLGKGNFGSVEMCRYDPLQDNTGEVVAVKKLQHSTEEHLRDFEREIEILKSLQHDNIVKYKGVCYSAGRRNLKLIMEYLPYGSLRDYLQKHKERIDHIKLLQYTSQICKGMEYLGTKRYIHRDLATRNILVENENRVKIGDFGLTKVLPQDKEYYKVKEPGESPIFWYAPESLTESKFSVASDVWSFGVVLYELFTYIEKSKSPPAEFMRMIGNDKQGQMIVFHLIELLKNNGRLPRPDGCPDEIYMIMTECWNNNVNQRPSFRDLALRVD
Protocol: as §1, §2, §3, §4, §5, §6

TYK2 = TYK2 (Homo sapiens (Human), UniProt P29597); test: JAK Family Caliper Enzyme Assay (TYK2); format: biochemical; conditions: recombinant human kinase domain, 1 mM ATP
TYK2, sequence (P29597 897-1176): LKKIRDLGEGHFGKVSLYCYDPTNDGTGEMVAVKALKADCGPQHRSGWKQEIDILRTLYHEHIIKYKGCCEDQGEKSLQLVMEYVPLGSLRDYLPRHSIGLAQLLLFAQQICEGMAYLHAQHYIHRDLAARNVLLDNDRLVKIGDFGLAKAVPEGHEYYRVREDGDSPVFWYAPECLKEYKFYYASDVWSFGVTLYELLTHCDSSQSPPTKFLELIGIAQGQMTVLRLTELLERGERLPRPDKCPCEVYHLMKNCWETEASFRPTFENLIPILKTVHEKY
Protocol: as §1, §2, §3, §4, §5, §6

[1] = In Vitro Human Hepatocyte Clearance Assay; format: in vitro ADME; conditions: cryopreserved human hepatocytes in suspension, 0.5 million cells/mL, 1 μM test compound, read-out: HHEP CLint, app (μL/min/million cells)
Protocol: In Vitro Human Hepatocyte Clearance Assay A high-throughput human hepatocyte substrate-depletion assay was performed in a 384-well formatted as described previously [Di et al., Eur. J. Med. Chem., 2012, 57, 441]. Briefly, the cryopreserved human hepatocytes were thawed and resuspended in Williams' E medium supplemented with HEPES and Na2CO3. The cells were counted using the trypan blue exclusion method. Test compounds were added to suspended human hepatocytes in Williams' E medium buffer and incubated at 37° C. in a humidified CO2 incubator (75% relative humidity, 5% CO2/air) for 4 hours. The final incubation contained 0.5 million cells/mL and 1 μM test compound in 15 μL total volume with 0.1% DMSO. At various time points (0, 3, 10, 30, 60, 120, and 240 minutes), an aliquot of the sample was taken and quenched with cold acetonitrile containing internal standard. The samples were centrifuged at 3000 rpm for 10 minutes at 4° C., and the supernatants were transferred to new plates, which were sealed before performing LC-MS/MS analysis. The apparent metabolic intrinsic clearance (CLint, met, app) was determined based on the substrate-depletion half-life estimated from the ratio of the peak area response of each compound to that of the internal standard, as described earlier [Di et al., Eur. J. Med. Chem., 2012, 57, 441].

JAK3 = JAK3 (Homo sapiens (Human), UniProt P52333); test: JAK Family Caliper Enzyme Assay (JAK3); format: biochemical; conditions: recombinant human kinase domain, 1 mM ATP
JAK3, sequence (P52333 822-1111): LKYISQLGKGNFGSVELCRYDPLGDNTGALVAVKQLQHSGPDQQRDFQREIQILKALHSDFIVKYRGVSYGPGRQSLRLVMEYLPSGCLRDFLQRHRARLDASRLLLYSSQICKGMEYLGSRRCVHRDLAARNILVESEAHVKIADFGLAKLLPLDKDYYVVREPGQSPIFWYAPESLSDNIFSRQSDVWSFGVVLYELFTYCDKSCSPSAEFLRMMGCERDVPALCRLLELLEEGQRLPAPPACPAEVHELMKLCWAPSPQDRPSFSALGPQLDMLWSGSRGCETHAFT
Protocol: as §1, §2, §3, §4
The percent effect at each compound concentration was calculated based on the positive and negative control well contained within each assay plate (Equation 2). […]

[2] = tested on: interferon alpha signalling (TYK2 and JAK1), pSTAT3 in human whole blood lymphocytes; test: HWB INF Alpha Induced STAT3 Phosphorylation Assay; format: cell-based; conditions: Lymphocyte, IFN alpha 5000 U/ml, flow cytometry
Protocol: HWB INF Alpha Induced STAT3 Phosphorylation Assay
Compounds of this invention were assessed for their ability to inhibit interferon alpha signalling in a human whole blood flow cytometry assay. Interferon alpha signals through TYK2 and JAK1. Test articles were prepared as 30 mM stocks in 100% DMSO, and then diluted to 10 mM. An 11-point 3 dilution series was created in DMSO with a top concentration of […]. Further dilution was done by adding 4 μL of the above test article solutions into 96 μL of PBS with a top concentration of 400 μM. Human whole blood (HWB) was collected from healthy donors via vein puncture into Vacutainer™ collection tubes containing sodium heparin (Catalog No. 366480, Becton Dickinson, Franklin Lakes, N.J.). Blood was warmed to 37° C. prior to use. […]
Samples were transferred to 96-well U bottom plates (Falcon #353077) and flow cytometric analysis was performed on an LSRFortessa equipped with a HTS plate loader (BD Biosciences). […] Background fluorescence was defined using unstimulated cells and a gate was placed at the foot of the peak to include ˜0.5% gated population. […] Relative fluorescence unit (RFU), which measures the level of phospho STAT, was calculated by multiplying the percent positive population and its mean fluorescence. […] Inhibition curves and IC50 values were determined using the Prism version 7 software (GraphPad, La Jolla, Calif.).

[3] = tested on: CXCL10 biomarker in Th2 stimulated ex vivo human skin; test: Biomarker Modulation in Th2 Stimulated Ex Vivo Human Skin Assay; format: cell-based; conditions: 1% w/w formulation applied topically, qPCR
Protocol: Biomarker Modulation in Th2 Stimulated Ex Vivo Human Skin Assay Compounds of this invention were assessed for their ability to modulate CXCL10 biomarker in Th2 stimulated ex vivo human skin following topical application. […] Freshly excised human skin from surgery specimens was cut with a dermatome to 750 μm thickness and mounted in a 7 mm static Franz cell for tissue culture such that the upper surface of the skin was exposed to air in the Franz cell donor chamber, and the bottom (dermis) was exposed to Cornification medium. A total of two skin donors were used (n=6 per treatment per donor). Incubations were carried out in a standard tissue culture incubator. Compound was dissolved in the indicated formulation at a concentration of 1% w/w and added apically to the skin at 10 μL per sample (approximately 18 μL per cm^2) at 4-6 replicates per donor. After 16 h media was replaced with stimulation cocktail containing anti-CD3 mAb, anti-CD28 mAb, IL-2, IL-4, IL-33 and TSLP. Incubation was continued for additional 24 hr at 37° C. Then skin was harvested, treated with RNALater solution and processed for RNA extraction and qPCR that was run in duplicates. MMP12, CCL26, CXCL10 and Filaggrin may be measured. Results for each sample were normalized to its own GAPDH internal standard which was not appreciably affected by stimulus or compound. Fold change was normalized to untreated sample.

JAK1, sequence (P23458 875-1153): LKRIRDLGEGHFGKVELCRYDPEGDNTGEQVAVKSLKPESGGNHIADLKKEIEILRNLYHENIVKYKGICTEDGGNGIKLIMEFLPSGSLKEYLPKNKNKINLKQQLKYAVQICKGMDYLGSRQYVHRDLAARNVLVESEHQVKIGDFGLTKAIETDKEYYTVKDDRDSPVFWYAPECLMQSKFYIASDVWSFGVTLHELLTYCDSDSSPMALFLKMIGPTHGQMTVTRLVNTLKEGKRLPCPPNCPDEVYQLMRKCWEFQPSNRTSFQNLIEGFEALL

## CCCn1cc(Nc2nccc(N3C[C@H]4CC[C@@H](C3)N4C(=O)[C@@H]3CC3(F)F)n2)cn1 [IA, ((S)-2,2-Difluorocyclopropyl)((1R,5S)-3-(2-((1-propyl-1H-pyrazol-4-yl)amino)pyrimidin-4-yl)-3,8-diazabicyclo[3.2.1]octan-8-yl)methanone]
JAK1
  IC50: 33 nM
JAK2
  IC50: 80 nM
TYK2
  IC50: 37 nM
[1]
  hepatocyte CLint at 1 μM: 8.6 µL/min/1e6 cells
JAK3
  IC50: > 9580 nM
[2]
  IC50: 66 nM
[3]
  % inhibition CXCL10: 94.2%

## Cn1cc(Nc2nccc(N3C[C@H]4CC[C@@H](C3)N4C(=O)[C@@H]3CC3(F)F)n2)cn1 [II, ((S)-2,2-difluorocyclopropyl)-((1R,5S)-3-(2-((1-methyl-1H-pyrazol-4-yl)amino)pyrimidin-4-yl)-3,8-diazabicyclo[3.2.1]octan-8-yl)methanone, reference compound]
[1]
  hepatocyte CLint at 1 μM: < 0.6 µL/min/1e6 cells
[3]
  % inhibition CXCL10: 72.4%

## C[C@H](O)Cn1cc(Nc2nccc(N3C[C@H]4CC[C@@H](C3)N4C(=O)[C@@H]3CC3(F)F)n2)cn1 [IC, ((S)-2,2-Difluorocyclopropyl)((1R,5S)-3-(2-((1-((S)-2-hydroxypropyl)-1H-pyrazol-4-yl)amino)pyrimidin-4-yl)-3,8-diazabicyclo[3.2.1]octan-8-yl)methanone]
JAK1
  IC50: 44 nM
JAK2
  IC50: 139 nM
TYK2
  IC50: 65 nM

## C[C@@H](O)Cn1cc(Nc2nccc(N3C[C@H]4CC[C@@H](C3)N4C(=O)[C@@H]3CC3(F)F)n2)cn1 [IB, ((S)-2,2-Difluorocyclopropyl)((1R,5S)-3-(2-((1-((R)-2-hydroxypropyl)-1H-pyrazol-4-yl)amino)pyrimidin-4-yl)-3,8-diazabicyclo[3.2.1]octan-8-yl)methanone]
JAK1
  IC50: 59 nM
JAK2
  IC50: 223 nM
TYK2
  IC50: 82 nM
JAK3
  IC50: > 10000 nM

## O=C([C@@H]1CC1(F)F)N1[C@@H]2CC[C@H]1CN(c1ccnc(Nc3cnn(CCCO)c3)n1)C2 [ID]
JAK1
  IC50: 47 nM
JAK2
  IC50: 81 nM
TYK2
  IC50: 30 nM
JAK3
  IC50: > 9280 nM
